# Measurements published in article PMC4778863, “A Four-Point Screening Method for Assessing Molecular Mechanism of Action (MMOA) Identifies Tideglusib as a Time-Dependent Inhibitor of Trypanosoma brucei GSK3β” (PLoS Neglected Tropical Diseases, 2016).
# Like-named read-outs stand apart in the source and are kept apart here.
# B1: TbGSK3β (Trypanosoma brucei brucei TREU927) (protein)
# chain: MSLNLTDAADDRSYKEMEKYTVERVAGQGTFGTVQLARDKSTGSLVAIKKVIQDPRFKNRELQIMQHLARLRHPNIVMLKNYFYTVGGEGRRNDVYLNVVMEFVPETLHRTCRNYYRRMTNPPLILVKVFMFQLLRSIACLHIPVINICHRDIKPHNVLVDEQTGELKLCDFGSAKRLAADEPNVAYICSRYYRAPELIFGNQFYTTAVDIWSVGCIFAEMLLGEPIFCGENTSGQLREIVKILGKPTKEELHKLNGSSTEINANAKATPWENVFKQPLPAEVYDLCGKIFKYVPDQRITPLDALCHPFFNELREPTTKLPSGNPLPAHLYQFTPDEVEAMTEAQREYLLKK
# notes: Full-length TbGSK3β (Gene DB ID Tb927.10.13780); 6X His (C); made in house; host or cells: BL21 (DE3) E. coli
# Experiments:
# TbGSK3β [1] = biological target: T1, TbGSK3β (Trypanosoma brucei brucei, UniProt Q388M1); assay: biochemical; format: biochemical; settings: for Ratio Preinc/no preinc: % inhibition at 30 min preincubation / % inhibition at 0 min preincubation at 10 μM ATP; for ATP competition following preincubation / ATP competition without preincubation: 10 μM versus 100 μM ATP; for ATP competition following preincubation: 30 min preincubation; for time dependence: effect of 30 min preincubation on TbGSK3β activity: four point MMOA assay, 10 μM and 100 μM ATP
# T1 construct: Full-length TbGSK3β (Gene DB ID Tb927.10.13780); 6X His (C); made in house; host or cells: BL21 (DE3) E. coli
# T1 sequence (Q388M1 1-352): B1 chain
# Method: TbGSK3β activity was measured by following the ADP formation associated with the phosphorylation of GSM peptide and detected with ADP-Glo at 23°C. The enzyme reaction was conducted in a volume of 20 μL in a buffer containing 20 mM NaCl, 15 mM HEPES pH 7.4, 1 mM EGTA, 10 mM MgCl2, 0.02% Tween. These assays contained GSM at 10μM (approximating Km) or 80 μM (approximating Vmax). ATP was added at 10 μM and 100 μM to approximate Km and Vmax, respectively.
# All reactions were incubated for 5 minutes in microcentrifuge tubes, and reactions were terminated at 80°C for 4 min. Of 20 μL reactions, 17.5 μL were transferred into 384 well-plates. Promega ADP-Glo procedures were carried out and phosphorylation measured by Luminoskan Ascent (Thermo Labsystems, Waltham MA). For pre-incubation experiments, TbGSK3β was preincubated at room temperature with inhibitor, GSM and buffer for 30 min. Inhibitors were added in DMSO to a final concentration of DMSO in the reactions of <5%. The kinase reaction was then started by adding ATP. For non-preincubation reactions, the kinase reactions were started by adding TbGSK3β to a mixture containing inhibitor, ATP, GSM and buffer. DMSO was added to all control reactions.
# IC50 for inhibition TbGSK3β was determined as a function of preincubation time (Fig 3). Preincubated reactions were preincubated with inhibitor, TbGSK3β, GSM peptide, and buffer at room temperature; after 30 minutes reactions were initiated with the addition of ATP. Reactions with 0 min preincubation were initiated with the addition of TbGSK3β. Reactions were run for 5 min at room temperature, and stopped at 80°C. ADP product formation was measured by ADP-Glo kit.
# Preincubated reactions were preincubated with inhibitor, TbGSK3β, GSM peptide, and buffer at room temperature; after 30 minutes reactions were initiated with the addition of ATP. Reactions with 0 min preincubation were initiated with the addition of TbGSK3β. Reactions were run for 5 min at room temperature, and stopped heat at 80°C, followed by ice bath, and ADP product formation was measured by ADP-Glo kit. All concentrations of tideglusib and controls with and without TbGSK3β were kept at 1% DMSO. Black = 30 minute preincubation Grey = 0 minute preincubation.
# Time dependent inhibition was evaluated by preincubation of TbGSK3β with 60 nM tideglusib and 6 nM GW-8510 with 10μM and 100μM ATP. […] (B). […] All reactions preincubated or not preincubated with TbGSK3β for 30 min at room temperature. Experiments run with 10μM GSM peptide, 10μM ATP, and buffer. Minute preincubation (30 min) was preincubated with inhibitor, TbGSK3β, GSM peptide, and buffer. ATP was mixed to initiate reaction. No preincubation contained inhibitor, GSM peptide, ATP, and buffer. The reaction was initiated with TbGSK3β. Reactions were run at room temperature for 5 min and stopped at 80°C. ADP formed was measured by ADP-Glo kit. Values are mean +/- standard error. N = 3 for each experiment and experiments were run in duplicates. Control reactions contained DMSO and background was determined using a zero time incubation and subtracted from all reactions. Black = 30 min preincubation Grey = No preincubation.
# [2] = tested on: T. brucei brucei strain 427; settings: cited from earlier work
# TbGSK3β [3] = biological target: T1, TbGSK3β; assay: Irreversibility: TbGSK3β activity following 100-fold dilution; format: biochemical; settings: 100 nM inhibitor preincubated 30 min with 50 nM TbGSK3β, diluted 100 fold into 100 μM ATP, 80 μM GSM; up to 2 hr
# Method: Tideglusib and GW8510 were evaluated for irreversibility by measuring the TbGSK3β activity following a 100-fold dilution with reaction buffer. In these experiments tideglusib and GW8510 [100 nM] were preincubated with 50 nM TbGSK3β for 30 min at which time the reaction was diluted 100 fold into a solution containing 100 μM ATP and 80 μM GSM. The activity was then measured for up to two hours (Fig 6). […] The final concentration of tideglusib and GW8510 following dilution was 1 nM.
# Tideglusib [100 nM, GW8510 [100 nM] and DMSO were preincubated with 50 nM TbGSK3 for 30 min. After a 100 fold dilution activity was measured and compared to DMSO containing reaction. Data expressed percent inhibition of DMSO activity. Data represent the average of two separate experiments for GW8510 and three for tideglusib. All points in each experiment were run in duplicate.
# [4] = parameters: method as in PMID 19523516; settings: mice; oral administration; cited from earlier work
# Trypanosomes = assay: Trypanosome viability after short term (6 hour) exposure and wash-out; format: cell-based, Trypanosoma brucei; settings: for trypanosome proliferation/viability after removal of drug following 6 hour exposure: drug-free medium, monitored for 44 hours
# Method: The effect of tideglusib on trypanosome viability after short term exposure was evaluated to determine if the molecule is cidal or cytostatic.
# Fig 9 Trypanosome viability after short term exposure with tideglusib. Trypanosomes (5 x 10^5/mL in HMI-9 medium) were treated with pentamidine (or water solvent control) or tideglusib (5 μM, 10 μM, or DMSO solvent control) for 6 hours (37°C, 5% CO2) and then cultured in drug-free treatment as detailed in panel (A). Trypanosome densities were determined after 6 hour treatment (B), and the drugs washed from the cells by centrifugation and resuspension in fresh medium (to a density of 0.5 x 10^5/mL). Trypanosome proliferation in the fresh medium was monitored for 44 hours (37°C, 5% CO2) (C). Error between four separate cultures are shown.
# [5] = cited from earlier work
# [6] = tested on: Bloodstream form Trypanosoma brucei; assay: Parasite assay: trypanosome proliferation, 48 hours, Coulter Counter; format: cell-based, strain CA427; settings: read-out: GI50 (concentration at which trypanosome proliferation was inhibited by 50%)
# human GSK3β = tested on: human GSK3β; parameters: method as in PMID 22102280; settings: following preincubation; read-out: IC50 against human GSK3β; cited from earlier work
# [7] = substrate: CC(C)C[C@H](NC(=O)[C@H](CO)NC(=O)[C@@H]1CCCN1C(=O)[C@H](CO)NC(=O)[C@@H]1CCCN1C(=O)[C@@H]1CCCN1C(=O)[C@@H](NC(=O)[C@H](CO)NC(=O)[C@H](C)NC(=O)[C@@H]1CCCN1C(=O)[C@H](CCCNC(=N)N)NC(=O)[C@H](CCCNC(=N)N)NC(=O)[C@@H](N)CCCNC(=N)N)C(C)C)C(=O)N[C@@H](CO)C(=O)N[C@@H](CCCNC(=N)N)C(=O)N[C@@H](Cc1c[nH]cn1)C(=O)N[C@@H](CO)C(=O)N[C@@H](COP(=O)(O)O)C(=O)N[C@@H](Cc1c[nH]cn1)C(=O)N[C@@H](CCC(N)=O)C(=O)N[C@@H](CCCNC(=N)N)C(=O)N[C@@H](CCCNC(=N)N)C(=O)O; assay: purified protein, by the assay type; format: biochemical; settings: other: substrate versus rate plots (Fig 2); pH 7.4
# [8] = IC50, 10 μM ATP and 10 μM GSM, ± standard deviation, n = 3
# [9] = 10 μM ATP and 10 μM GSM, ± standard deviation, n = 3, read-out: IC50
# [10] = IC50 for inhibition TbGSK3β, non-preincubated reactions, 0 min preincubation, 10 μM GSM, 10 μM ATP, kinase 10 nM
# [11] = IC50 for inhibition TbGSK3β, preincubated reactions, 30 min preincubation with inhibitor, TbGSK3β, GSM, 10 μM GSM, 10 μM ATP, kinase 10 nM
molecule,measurement,setting,value
Nc1ncnc2c1ncn2[C@@H]1O[C@H](COP(=O)(O)OP(=O)(O)OP(=O)(O)O)[C@@H](O)[C@H]1O [ATP],Km,TbGSK3β [1]; substrate versus rate plots (Fig 2),21 µM
Cc1cc(Nc2nc(N[C@@H](C)c3ccc(F)cc3)c(C#N)cc2F)n[nH]1 [AZ960],IC50,TbGSK3β [1]; [8],4100 ± 1270 nM
Cc1c[nH]c(-c2cnc(NCCNc3ccc(C#N)cn3)nc2-c2ccc(Cl)cc2Cl)n1 [CT99021],IC50,TbGSK3β [1]; [9],200 ± 80 nM
same,Ratio Preinc/no preinc,TbGSK3β [1],0.97
O=C1Nc2ccc3ncsc3c2/C1=C/Nc1ccc(S(=O)(=O)Nc2ccccn2)cc1 [GW8510],percent inhibition of activity at lower ATP,"TbGSK3β [1]; 10 μM ATP, irrespective of preincubation time, four point MMOA assay (Fig 4)",67%
same,ATP competition following preincubation,TbGSK3β [1],competitive
same,ATP competition without preincubation,TbGSK3β [1]; no preincubation,competed with ATP
same,percent inhibition of activity at higher ATP,"TbGSK3β [1]; 100 μM ATP, irrespective of preincubation time, four point MMOA assay (Fig 4)",28%
same,IC50,TbGSK3β [1]; [10],15.1 nM
same,IC50,TbGSK3β [1]; [11],14.5 nM
same,time dependence: effect of 30 min preincubation on TbGSK3β activity,TbGSK3β [1],no effect
same,EC50,"[2]; 48 hr, read-out: EC50 in parasite growth assay",119 nM
same,EC50,[2]; read-out: cellular activity against T. brucei,120 nM
same,enzyme activity following 100-fold dilution (reversibility),TbGSK3β [3],enzyme activity was recovered
Cc1cc(Nc2cc(CN3CCOCC3)c3nc(C)c(Cc4ccc(Cl)cc4F)n3n2)n[nH]1 [LY278544],IC50,TbGSK3β [1]; [9],500 ± 120 nM
same,Ratio Preinc/no preinc,TbGSK3β [1],0.83
Nc1cccc(-c2cc3c(Oc4cccc(O)c4)ncnc3[nH]2)c1 [TWS119],IC50,TbGSK3β [1]; [9],600 ± 140 nM
same,Ratio Preinc/no preinc,TbGSK3β [1],1
O=c1sn(-c2cccc3ccccc23)c(=O)n1Cc1ccccc1 [Tideglusib],ATP competition following preincubation,TbGSK3β [1],non-competitive behavior
same,ATP competition without preincubation,TbGSK3β [1]; no preincubation,competed with ATP
same,IC50,TbGSK3β [1]; [8],170 ± 23 nM
same,IC50,TbGSK3β [1]; [10],173 nM
same,IC50,TbGSK3β [1]; [11],43 nM
same,time dependence: effect of 30 min preincubation on TbGSK3β activity,TbGSK3β [1],decreased the enzyme activity following preincubation
same,progress curves: percent inhibition / rate of product formation with time,"TbGSK3β [1]; no preincubation, 100 μM ATP, 80 μM GSM, 5-60 min",percent inhibition was greater at 30 min as compared to 5 min
same,Blood levels,[4],approximately 2.25±1.55 μg/ml
same,Blood levels (molar),[4],~6.7 µM
same,trypanosome growth during 6 hour treatment,"Trypanosomes; 5 or 10 μM, high trypanosome density 5 x 10^5/mL",markedly slowed trypanosome growth
same,growth rate after recovery from exposure,Trypanosomes; after the initial lag in recovered growth,approximately 11 doublings in 48 hours
same,cidal or cytostatic,Trypanosomes; high trypanosome cell densities,cytostatic
same,tolerability in phase II studies,[5]; Alzheimer's disease and progressive supranuclear palsy,well-tolerated
same,tolerability in clinical trial,"[5]; escalating doses of up to 1000 mg/day, 30 Alzheimer's patients, 6 weeks",generally well tolerated
same,GI50,[6],2300 nM
N=C(N)c1ccc(OCCCCCOc2ccc(C(=N)N)cc2)cc1 [pentamidine],trypanosome proliferation/viability after removal of drug following 6 hour exposure,Trypanosomes,killed all observed trypanosomes
B1,Km,[7],23 µM
